Assays:
[1] = Paustenbach et al., 1988, cited from earlier work
[2] = Real-time measurement of CCl4 in combined exhaled breath of rats after a single intravenous injection (TAGA tandem mass spectrometer); assay type: in vivo, male Fischer 344 rat
Excerpt: Male, Fischer 344 rats, weighing 225-275 g, were purchased either with, or without, indwelling jugular vein cannulas from Charles River, Inc., Raleigh, N.C. Animals were housed singularly in solid-bottom cages with hardwood chips, and were acclimated on a 12-hr light/dark cycle prior to use. Rodent chow (NIH-07) and water were provided ad libitum throughout the acclimation period. Cannulas were maintained by periodic flushing with heparinized saline.
In three different experiments, either two or four animals were placed in nose-only restraint tubes (C. H. Technologies, Westwood, N.J.) with access slots that allow the cannulas to be exteriorized from the animal. Each animal restrainer was connected via a nose port to the rat manifold. The exhaled breath from the rat exited the nose port and was driven into a common mixing chamber by a continuous flow of supplied breathing air. Samples for analysis by the mass spectrometer were continually drawn from the contents of the mixing chamber. Rats placed in restraint tubes are connected to the manifold. The exhaled breath from each animal is passed into a common heated mixing chamber, where the mass spectrometer draws a sample via a drying tube.
Each animal received a single intravenous injection of CCl4 in isotonic saline, either through the Jugular vein cannula, or via the tail vein. In the first experiment, two animals were utilized, each receiving a dose of 0.6 mg/kg body weight (BW) (250 μl volume) through the jugular vein cannula. Cannulas were flushed with saline immediately following injection. The second and third experiments utilized 4 animals each, with each animal receiving a dose of 1.5 mg/kg BW (1 ml volume) through the tail vein. In all cases, the length of time of injection was approximately 1 minute. The combined exhaled breath from the exposed animals was measured continuously to determine the concentration of CCl4 exhaled. The resulting concentration data were adjusted to account for dilution by the flow of supplied breathing air and divided by the number of rats to allow expression as ng CCl4 /l air per rat.
The expired breath from the rats was monitored by interfacing the rats to a tandem mass spectrometer. The manifold was a modification of a human breath interface patented by Kenny and Kelly (1991) U.S. Pat. No. 5,042,501 herein incorporated by reference. This device can accommodate up to six rats connected by the nose-only restraint tubes mentioned above. Breathing air (1000 ml/min) is constantly supplied to the rats through the center tube (175 ml volume) of the manifold at a rate greater than the combined ventilation rate of the animals on the system, and can be adjusted for the number of rats being monitored. Re-breathing of the exhaled air was considered to be negligible. The exhaled breath from each rat flows into a common heated mixing chamber (300 ml volume) from which the mass spectrometer continuously draws its sample. The excess exhaled air is vented from the mixing chamber with negligible flow restriction via a large bore hole exit tube. Intensity data from the mass spectrometer was converted to concentration (ppb) through the use of external standards and a calibration curve for carbon tetrachloride. A new calibration curve was generated each day of experimentation.
During these experiments, the expired breath of the rats was monitored in real-time using a Sciex Trace Atmospheric Gas Analyzer (TAGA) 6000E tandem mass spectrometer (Sciex, Thornhill, Ontario, Canada) equipped with a low-pressure chemical ionization source (LPCI). The TAGA combines sampling and analysis into one rapid operation, while maintaining a very high level of sensitivity and selectivity (Dawson et al. 1982a; 1982b). The TAGA consists of a LPCI source and two mass filters in series, separated by a gas-collision region. Organic molecules in the sampled air stream are ionized directly at approximately 1 torr by the chemical reactions generated about a Townsend discharge electrode. […]

[3] = cited from earlier work
[4] = 0.6 mg/kg BW, jugular vein cannula, two rats, FIG. 3a

## ClC(Cl)(Cl)Cl [CCl4, carbon tetrachloride]
[1]; body weight 250 g
  Vmaxc (Metabolism): 13.8 μg CCl4 /min per kg
[1]
  Km (Metabolism): 0.25 µg/mL
[2]; [4]
  first pass elimination through the lung: extremely rapid
  levels available for subsequent distribution into the entire blood volume: very low levels
[2]; 1.5 mg/kg BW, tail vein, four rats, FIG. 3b, compared with jugular vein
  fraction of CCl4 held up in the circulating blood supply: larger fraction
[2]; 1.5 mg/kg BW, tail vein, four rats, FIG. 3b, repeat gave same pattern
  elimination through the lung (exhalation profile): initial sharp peak
[2]; FIGS. 3a and 3b, single i.v. injection
  time for which the decay of the CCl4 can be followed after the injection before returning to baseline: 30 to 35 min
[2]; rat, exhaled breath, iv, single i.v. injection, 0.6 mg/kg jugular vein or 1.5 mg/kg tail vein, consistent with calculated sample-introduction delay (28.5 seconds), read-out: peak concentration of CCl4 in exhaled breath occurred in (time from the end of the injection) (converted)
  Tmax: ~30 s
[2]; single i.v. injection of CCl4
  acetone in exhaled breath (biomarker of CCl4-induced lipid peroxidation): not detectable
[3]; Gargas et al., 1986b
  Partition coefficient Blood: Air: 4.52
  Partition coefficient Liver: Blood: 3.14
  Partition coefficient Slowly perfused: Blood: 2.0
[3]; Set equivalent to partition coefficient for liver: blood
  Partition coefficient Richly perfused: Blood: 3.14
